Measurements from patent US8778923B2, “GLP-1 receptor modulators” (Receptos, Inc., priority 2011, dated 2014).

Biological target: T1, GLP-1R (Homo sapiens, UniProt P43220)
T1 construct: host or cells: CRE-bla CHO-K1
Assay: EC20 GLP-1(9-36) PAM cAMP assay: dose response of compound in the presence of fixed concentration of GLP-1(9-36)
Type: cell-based
Conditions: GLP-1R CRE-bla CHO-K1 cells, compound dose response in presence of fixed concentration of GLP-1(9-36)
Procedure: EC20 GLP-1(9-36) PAM cAMP Assay: Dose Response of Compound in the Presence of Fixed Concentration of GLP-1 (9-36).
GLP-1R CRE-bla CHO-K1 cells cultured in growth medium (DMEM-High glucose, 10% dialyzed FBS, 0.1 mM NEAA, 25 mM Hepes, 100 U/mL penicillin/100 μg/mL streptomycin, 5 μg/mL Blasticidin, 600 μg/mL Hygromycin) were tryspsinized and plated in suspension into 384 well white flat bottom plates at 5000 cells/well in 12 μL assay buffer (Hanks Balanced Salt solution, 10 mM Hepes, 0.1% BSA, pH 7.4). A 5× compound dose response curve (12-point) was generated in assay buffer containing 1.5 mM IBMX, 12.5% DMSO. GLP-1(9-36) was diluted to 4.2 μM in assay buffer containing 1.5 mM IBMX and 12.5% DMSO. The 5× compound dose response was added (3 μL), followed by 0.5 μL of GLP-1(9-36) and cells were incubated for 30 min at 37° C. Direct detection of cAMP was carried out using DiscoveRx HitHunter cAMP kit according to manufacturer's instructions and luminescence was read using a SpectraMax M5 plate reader. Luminescence was converted to total cAMP using a cAMP standard curve and data was analyzed by non-linear regression to determine the EC50 and Emax.
GLP-1(7-36): […]-NH2. GLP-1(9-36): […]-NH2. GLP-1(7-36) was purchased from GenScript. GLP-1(9-36) was purchased from Biopeptide Co., Inc.

T1 sequence (P43220 24-463): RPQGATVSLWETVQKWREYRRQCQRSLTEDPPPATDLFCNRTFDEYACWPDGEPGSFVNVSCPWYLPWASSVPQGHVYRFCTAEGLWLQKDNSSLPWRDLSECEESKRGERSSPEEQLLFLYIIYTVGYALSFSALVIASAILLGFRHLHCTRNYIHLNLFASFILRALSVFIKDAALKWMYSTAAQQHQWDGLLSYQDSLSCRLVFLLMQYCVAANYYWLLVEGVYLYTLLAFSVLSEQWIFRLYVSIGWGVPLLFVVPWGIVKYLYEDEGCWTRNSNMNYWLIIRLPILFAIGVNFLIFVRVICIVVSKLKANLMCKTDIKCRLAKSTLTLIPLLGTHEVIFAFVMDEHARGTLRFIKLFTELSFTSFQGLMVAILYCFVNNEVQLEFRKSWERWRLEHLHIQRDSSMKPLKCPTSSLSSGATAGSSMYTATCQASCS
T1 sequence (P01275 100-127 partner limits assumed): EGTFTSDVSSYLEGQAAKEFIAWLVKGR

SMILES	EC50 [µM]
CCCCCCCOc1ccc(-c2cnc(-c3ccc(C[C@H](NC(=O)c4cccc(C(C)C)c4)C(=O)O)cc3)nc2)cc1 [Compound 95]	0.8 to 2.5
CCCCCCCOc1ccc(-c2cnc(-c3ccc(C[C@H](NC(=O)c4ccc(C(F)(F)F)s4)C(=O)O)cc3)nc2)cc1 [Compound 140]	2.5 to 5
CCCCCCCOc1ccc(-c2cnc(-c3ccc(C[C@H](NC(=O)c4cc5c(s4)CCC5)C(=O)O)cc3)nc2)cc1 [Compound 150]	0.8 to 2.5
CCCCCCCn1nnnc1-c1cnc(-c2ccc(C[C@H](NC(=O)c3ccc(C(C)(C)C)cc3)C(=O)O)cc2)nc1 [Compound 255]	5 to 10
CCCCCCCOc1ccc(-c2cnc(-c3ccc(C[C@@H](NC(=O)c4ccc(C(C)(C)C)s4)C(=O)N[C@@H](C)C(=O)O)cc3)nc2)cc1 [Compound 374]	0.8 to 2.5
CCN(CC)c1ccc(-c2nc(-c3ccc(C[C@H](NC(=O)c4ccc(C(C)(C)C)cc4)C(=O)O)cc3)no2)cc1 [Compound 48]	5 to 10
CCCCCCCOc1ccc(-c2cnc(-c3ccc(C[C@@H](NC(=O)c4ccc(C(C)(C)C)s4)C(=O)N[C@@H](CCC(N)=O)C(=O)O)cc3)nc2)cc1 [Compound 377]	< 0.8
CCCCCCCOc1ccc(-c2cnc(-c3ccc(C[C@H](NC(=O)c4ccc(CN(C)C)cc4)C(=O)O)cc3)nc2)cc1 [Compound 134]	0.8 to 2.5
CCCOc1ccc(-c2cnc(-c3ccc(C[C@H](NC(=O)c4ccc(C(C)(C)C)cc4)C(=O)O)cc3)nc2)cc1 [Compound 222]	0.8 to 2.5
CC(C)(C)c1ccc(C(=O)N[C@@H](Cc2ccc(-c3noc(-c4ccc(-c5ccc(Cl)cc5)cc4)n3)cc2)C(=O)O)cc1 [Compound 16]	5 to 10
CCCCCCCOc1ccc(-c2cnc(-c3ccc(C[C@H](NC(=O)c4ncc(C(C)(C)C)s4)C(=O)O)cc3)nc2)cc1 [Compound 142]	< 0.8
CCCCCCCOc1ccc(N2CCC(Nc3ccc(C[C@H](NC(=O)c4ccc(C(C)(C)C)cc4)C(=O)O)cc3)CC2)cc1 [Compound 263]	0.8 to 2.5
CCCCCCCOc1ccc(-c2cnc(-c3ccc(C[C@H](NC(=O)c4ccc(C(N)=O)cc4)C(=O)O)cc3)nc2)cc1 [Compound 115]	0.8 to 2.5
CCCCCCCOc1ccc(-c2cnc(-c3ccc(C[C@H](NC(=O)c4ccc(C(F)(F)F)cc4)C(=O)O)cc3)nc2)cc1 [Compound 93]	5 to 10
CC(C)n1cc(C(=O)N[C@@H](Cc2ccc(-c3ncc(-c4ccc(C(C)(C)C)cc4)cn3)cc2)C(=O)NCC(=O)O)cn1 [Compound 370]	0.8 to 2.5
CCCCCCCOc1ccc(-c2cnc(-c3ccc(C[C@H](NC(=O)c4ccc(C(C)(C)C)cc4)C(=O)O)cc3)nc2OC)cc1 [Compound 292, (S)-2-(4-(tert-butyl)benzamido)-3-(4-(5-(4-(heptyloxy)phenyl)-4-methoxypyrimidin-2-yl)phenyl)propanoic acid]	0.8 to 2.5
CCCCCCCOc1ccc(-c2cnc(-c3ccc(C[C@H](NC(=O)c4ccc(S(C)(=O)=O)cc4)C(=O)O)cc3)nc2)cc1 [Compound 99]	0.8 to 2.5
CC(C)(C)c1ccc(C(=O)N[C@@H](Cc2ccc(-c3noc(-c4ccc(C(F)(F)F)cc4)n3)cc2)C(=O)O)cc1 [Compound 11]	0.8 to 2.5
COc1ccc(-c2ccc(-c3nc(-c4ccc(C[C@H](NC(=O)c5ccc(C(C)(C)C)cc5)C(=O)O)cc4)no3)cc2)c(OC)c1 [Compound 25]	0.8 to 2.5
CC(C)(C)c1ccc(-c2cnc(-c3ccc(C[C@H](NC(=O)c4ncc(C(C)(C)C)s4)C(=O)O)cc3)nc2)cc1 [Compound 177]	0.8 to 2.5
CC(C)(C)c1ccc(-c2cnc(-c3ccc(C[C@H](NC(=O)c4cc(C(C)(C)C)n[nH]4)C(=O)O)cc3)nc2)cc1 [Compound 168]	0.8 to 2.5
CC(C)(C)c1ccc(-c2cnc(-c3ccc(C[C@H](NC(=O)c4ccc(C(C)(C)C)s4)C(=O)N[C@@H](CCC(=O)O)C(=O)O)cc3)nc2)cc1 [Compound 363]	0.8 to 2.5
CCCCCCCOc1ccc(-c2cnc(-c3ccc(C[C@H](NC(=O)c4ccc(C(C)(C)C)s4)C(=O)N4CCCC(C(=O)O)C4)cc3)nc2)cc1 (stereo partly shown) [Compound 347]	< 0.8
CC(C)(C)c1ccc(-c2cnc(-c3ccc(C[C@H](NC(=O)c4ccc(C(C)(C)C)s4)C(=O)NCC(=O)O)cc3)nc2)cc1 [Compound 351]	< 0.8
CC(C)(C)c1ccc(-c2ccc(-c3ccc(C[C@H](NC(=O)c4ccc(C(C)(C)C)s4)C(=O)O)cc3)nc2)cc1 [Compound 278]	2.5 to 5
CN(C)c1cccc(-c2nc(-c3ccc(C[C@H](NC(=O)c4ccc(C(C)(C)C)cc4)C(=O)O)cc3)no2)c1 [Compound 53]	2.5 to 5

SMILES	EC50 [µM]
CC(C)(C)c1ccc(-c2cnc(-c3ccc(C[C@H](NC(=O)c4cnn(C(C)(C)C)c4)C(=O)O)cc3)nc2)cc1 [Compound 178]	0.8 to 2.5
CCCc1ccc(C(=O)N[C@@H](Cc2ccc(-c3ncc(-c4ccc(C(C)(C)C)cc4)cn3)cc2)C(=O)O)cc1 [Compound 164]	0.8 to 2.5
CC(C)(C)c1ccc(C(=O)N[C@@H](Cc2ccc(-c3noc(-c4ccc(-c5ccccc5C#N)cc4)n3)cc2)C(=O)O)cc1 [Compound 31]	0.8 to 2.5
CCCCCCCOc1ccc(-c2noc(-c3ccc(C[C@H](NC(=O)c4ccc(C(C)(C)C)cc4)C(=O)O)cc3)n2)cc1 [Compound 1, (S)-2-(4-(tert-butyl)benzamido)-3-(4-(3-(4-(heptyloxy)phenyl)-1,2,4-oxadiazol-5-yl)phenyl)propanoic acid]	0.8 to 2.5
CCCCCCCOc1ccc(-c2cnc(-c3ccc(C[C@H](NC(=O)c4ccc(C(C)=O)s4)C(=O)O)cc3)nc2)cc1 [Compound 154]	< 0.8
Cc1cccc(-c2ccc(-c3cnc(-c4ccc(C[C@H](NC(=O)c5ccc(C(C)(C)C)cc5)C(=O)O)cc4)nc3)cc2)c1 [Compound 230]	0.8 to 2.5
CCCCCCCOc1ccc(-c2cnc(-c3ccc(C[C@H](NC(=O)c4ccc(C(C)(C)C)s4)C(=O)N[C@@H](C)CC(=O)O)cc3)nc2)cc1 [Compound 346]	0.8 to 2.5
COc1cc(C)ccc1-c1nc(-c2ccc(C[C@H](NC(=O)c3ccc(C(C)(C)C)cc3)C(=O)O)cc2)no1 [Compound 9]	5 to 10
Cn1ccc2c(-c3cnc(-c4ccc(C[C@H](NC(=O)c5ccc(C(C)(C)C)cc5)C(=O)O)cc4)nc3)cccc21 [Compound 197]	2.5 to 5
CCCCCCCOc1ccc(-c2nc(-c3ccc(C(NC(=O)c4ccc(C(C)(C)C)cc4)C(=O)O)cc3)no2)cc1 (stereo not shown) [Compound 71]	2.5 to 5
Cc1cc(C)cc(-c2nc(-c3ccc(C[C@H](NC(=O)c4ccc(C(C)(C)C)cc4)C(=O)O)cc3)no2)c1 [Compound 57]	2.5 to 5
CC(C)(C)c1ccc(C(=O)N[C@@H](Cc2ccc(-c3noc(-c4ccc(-c5cccc(C#N)c5)cc4)n3)cc2)C(=O)O)cc1 [Compound 28]	2.5 to 5
CCCCCCCOc1ccccc1-c1cnc(-c2ccc(C[C@H](NC(=O)c3ccc(C(C)(C)C)cc3)C(=O)O)cc2)nc1 [Compound 220]	2.5 to 5
CCCCCCOc1ccc(-c2cnc(-c3ccc(C[C@H](NC(=O)c4ccc(C(C)(C)C)s4)C(=O)NCC4(C(=O)O)CCC4)cc3)nc2)cc1 [Compound 342]	0.8 to 2.5
CCCCCCCOc1ccc(-c2cnc(-c3ccc(C[C@H](NC(=O)c4ccc(C(C)C)cc4)C(=O)N[C@@H](C)C(=O)O)cc3)nc2)cc1 [Compound 305]	0.8 to 2.5
CN(C)c1ccc(-c2nc(-c3ccc(C[C@H](NC(=O)c4ccc(C(C)(C)C)cc4)C(=O)O)cc3)no2)cc1 [Compound 47]	2.5 to 5
CCCCCCCOc1ccc(-c2cnc(-c3ccc(C[C@H](NC(=O)c4ccc(C(C)C)cc4)C(=O)N[C@H](CC(C)C)C(=O)O)cc3)nc2)cc1 [Compound 313]	0.8 to 2.5
CCCCCCCOc1ccc(-c2cnc(-c3ccc(C[C@H](NC(=O)c4ccc(OC(C)(C)C)cc4)C(=O)O)cc3)nc2)cc1 [Compound 125]	0.8 to 2.5
CCCCCCCOc1ccc(-c2cnc(-c3ccc(C[C@H](NC(=O)c4ccc(O)cc4)C(=O)O)cc3)nc2)cc1 [Compound 114, (S)-3-(4-(5-(4-(heptyloxy)phenyl)pyrimidin-2-yl)phenyl)-2-(4-hydroxybenzamido)propanoic acid]	0.8 to 2.5
CC(C)(C)c1ccc(C(=O)N[C@@H](Cc2ccc(-c3ncc(-c4ccc(F)cc4)cn3)cc2)C(=O)O)cc1 [Compound 206]	2.5 to 5
CCCCCCCOc1ccc(-c2cnc(-c3ccc(C[C@H](NC(=O)c4ccc(OCC)cc4)C(=O)O)cc3)nc2)cc1 [Compound 108]	0.8 to 2.5
CCCCCCCOc1ccc(-c2cnc(-c3ccc(C[C@@H](NC(=O)c4ccc(C(C)(C)C)s4)C(=O)N[C@@H](CO)C(=O)O)cc3)nc2)cc1 [Compound 378]	< 0.8
Cc1ccc(-c2ccc(-c3cnc(-c4ccc(C[C@H](NC(=O)c5ccc(C(C)(C)C)cc5)C(=O)O)cc4)nc3)cc2)cc1 [Compound 229]	0.8 to 2.5
CC(C)(C)c1ccc(C(=O)N[C@@H](Cc2ccc(-c3noc(-c4ccc(Oc5ccccc5)cc4)n3)cc2)C(=O)O)cc1 [Compound 35]	2.5 to 5
CC(C)(C)c1ccc(-c2cnc(-c3ccc(C[C@H](NC(=O)c4nnc(C(C)(C)C)s4)C(=O)O)cc3)nc2)cc1 [Compound 169]	5 to 10
CC(C)Sc1ccc(-c2nc(-c3ccc(C[C@H](NC(=O)c4ccc(C(C)(C)C)cc4)C(=O)O)cc3)no2)cc1 [Compound 59]	2.5 to 5
